Reference: US20250368767A1, “POLYMER FOR INHIBITING SARS-COV-2 AND OTHER PATHOGENS” (FREIE UNIVERSITÄT BERLIN, priority 2022, published 2025)

Key:
[1] = tested on: wild-type (WT) SARS-CoV-2; assay type: cell-based; details: plaque reduction assay
[2] = zeta potential; assay type: physicochemical
Description: Overall negative charge of the polymers owing to sulfate groups was confirmed by very high negative value of zeta potential (cf. Table 9). To check the morphology of P1 in aqueous solution, cryo-electron microscopy (cryo-EM) was performed. In accordance with the inventors' hypothesis, worm-like defined fibers having a length between approximately 150 nm and 215 nm were observed. Tomography of the sample was measured to calculate accurate length and width of the fibers.

In the case of Heparin, the “IC50 (μg/mL) against SARS-CoV-2” value [1] is reported as 1383.0 ± 255.1 µg/mL, the IC50 ([1]; read-out: IC50 (μM) against SARS-CoV-2) is reported as 92.3 ± 19.4 µM and the “ξ potential (mV)” value [2] is reported as −31.2 ± 3.9 mV.
